Here are results for seven compounds from patent US20260242359A1, “IRHOM2 INHIBITORS AND USES THEREOF” (NEW YORK SOCIETY FOR THE RELIEF OF THE RUPTURED AND …, priority 2023, published 2026).

The experiment relates to LPS-induced release of endogenous TNFα from human THP-1 macrophage cells. In words: Example 12: ELISA-based TNFα release assay, LPS-induced, THP-1 macrophage cells. Type of experiment: cell-based. The conditions noted are these: for inhibition at 10 µM: Homo sapiens, THP-1, 2 h, read-out: inhibition of LPS-induced release of TNFα from THP-1 cells. How it is done: In the following study, ELISA-based TNFα release assay was performed to verify the inhibitory effects of Compounds 1, 2, 3, 4, 5, and 7 on LPS-induced release of endogenous TNFα from human THP-1 macrophage cells. The ELISA-based TNFα release assay that was used in this example is described below.
In brief, on day 1, Nunc black MaxiSorp® 96-well plates (Thermo Fisher Scientific, USA) were coated overnight with 100 μl per well of mouse anti-human TNFα capture antibody (provided as part of the DuoSet ELISA kit) at 4 μg/ml TBS at 4° C. On day 2, the capture antibody solution was removed and MaxiSorp® plates were blocked with 300 μl per well of TBS, 1% BSA at room temperature for 3 hours. Meanwhile, 20,000 THP-1 (American Type Culture Collection, USA) cells in 80 μl of normal growth medium were seeded in each well of Greiner CELLSTAR V-bottom 96-well plates (Thermo Fisher Scientific, USA) and pre-incubated with 20 μl per well of standard growth medium supplemented with Batimastat (BB94, Abcam, UK) at 50 μM as positive control (for a final concentration of 10 μM in the resulting 100 μl sample volume), compounds of the invention at 50 μM (for a final concentration of 10 μM in the resulting 100 μl sample volume) and in case of Buffer stimulated and unstimulated controls with DMSO (Carl Roth, Germany) at 50 μM (for a final concentration of 10 μM in the resulting 100 μl sample volume) at 37° C., 5% CO2 for 30 minutes. Subsequently, cells (except those for unstimulated controls) were stimulated with 20 μl per well of LPS (Sigma-Aldrich, USA) at 300 ng/ml growth medium for a final concentration of 50 ng/ml at 37° C., 5% CO2 for 2 hours. Afterwards, the 96-well plates were centrifuged to pellet cells. In parallel, blocking buffer was removed from the MaxiSorp® plates and plates were washed 4 times with 350 μl per well of TBS-T (Carl Roth, Germany) on a 96-head plate washer (Tecan Group, Switzerland). To avoid drying-up, 30 μl of TBS were added to each well of the MaxiSorp® plates immediately, followed by the transfer of 70 μl of cell-free supernatant per sample. Additionally, 100 μl of recombinant human TNFα protein (provided as part of the DuoSet ELISA kit) diluted in TBS at defined concentrations were added to the plate as standard references. Thereafter, 100 μl per well of biotinylated goat anti-human TNFα detection antibody (provided as part of the DuoSet ELISA kit) at 50 ng/ml TBS were added and, protected from direct light, plates were incubated at room temperature for 2 hours. After 4 times washing with 350 μl per well of TBS-T (Carl Roth, Germany) on a 96-head plate washer (Tecan Group, Switzerland) and careful removal of all buffer traces after the fourth cycle, 100 μl of streptavidin-AP (R&D Systems, USA) diluted 1:10,000 in TBS were added to each well and, again protected from direct light, plates were incubated at room temperature for 30 minutes. Following another round of 4 times washing with 350 μl per well of TBS-T (Carl Roth, Germany) on a 96-head plate washer (Tecan Group, Switzerland) and careful removal of all buffer traces after the fourth cycle, 100 μl of AttoPhos substrate solution (Promega, USA) was added for incubation in the dark at room temperature for 1 hour. Using an infinite M1000 PRO (Tecan Group, Switzerland) microplate reader, the fluorescence of each well was collected at an excitation wavelength of 435 nm and an emission wavelength of 555 nm.
The delta between Buffer stimulated and Buffer unstimulated was defined 100% inhibition.

The mark [1] stands for this setting: 10 μM final concentration, LPS 50 ng/ml, 2 hours, delta Buffer stimulated vs unstimulated = 100% inhibition.

Like-named read-outs stand apart in the source and are kept apart here.

Usually inhibition stands for how much of the control response was suppressed.

In the case of `CNC(=O)[C@H](Cc1ccccc1)NC(=O)[C@H](CC(C)C)[C@H](CSc1cccs1)C(=O)NO` [Batimastat, reference compound], under setting [1], the “inhibition of LPS-induced release of TNFα from THP-1 cells” value was 94.9% and the inhibition at 10 µM was 87.4%.

As to `CCC(=O)NCCc1c(/C=C2/C(=O)NC(=O)N(c3ccc(C)cc3C)C2=O)[nH]c2ccccc12` [Compound 1], the inhibition at 10 µM is 100%.

`CCOC(=O)c1ccc(Nc2nc3nonc3n3nnnc23)cc1` [Compound 2]: the inhibition at 10 µM under setting [1] came to 94.6%.

`O=C(c1c(Cl)cccc1Cl)N1CCC(Cc2ccc(F)cc2)CC1` [Compound 3]: the inhibition at 10 µM under setting [1] is 93.1%.

Take `Cc1c(C(=O)NCc2cccs2)sc(=O)n1Cc1ccccc1` [Compound 4]: the inhibition at 10 µM under setting [1] is 58.2%.

For `Cc1c(C(=O)NCc2cccs2)sc(=O)n1Cc1ccccc1F` [Compound 5], the inhibition at 10 µM under setting [1] was 66.1%.

Take `Cc1c(C(=O)NCc2ccco2)sc(=O)n1Cc1ccccc1F` [Compound 7]: the inhibition at 10 µM under setting [1] is 85.8%.
